The values below come from article PMC8916643, “Molecular physiology of pumiliotoxin sequestration in a poison frog” (PLoS ONE, 2022).

One data set concerns mice. The conditions noted are these: mice and insects; cited from earlier work.
In data set [1] the test system is mammalian and insect voltage-gated sodium and potassium channels. Also noted: method as in PMID 18061227. The conditions noted are these: 100 μM; strongest effect on hKv1.3; cited from earlier work.
The nature of data set [2]: Alkaloid feeding experiment, alkaloid abundance in tissues by LC-MS/MS. Type of data set: in vivo, Dendrobates tinctorius. The conditions noted are these: DHQ+PTX feeding group; fed orally daily for five days. From the text: Lab-reared (non-toxic) Dendrobates tinctorius were housed in terraria with live plants, a water pool, and a shelter. Ten adult females were size-matched, randomly assigned to control or experimental groups (N = 5 per group), and then housed individually. To measure the specific effects of PTX 251D compared to a background toxicity, the control group was fed 0.01% DHQ (Sigma-Aldrich, St. Louis, USA) in a solution of 1% EtOH and the experimental group was fed a solution of 0.01% DHQ and 0.01% PTX 251D (PepTech, Burlington, MA, USA) in a solution of 1% EtOH in water. Each frog was fed 15 μL each day for five days by pipetting the solution directly into the mouth between 10am-12pm. On the afternoon of the fifth day, frogs were euthanized by cervical transection and the dorsal skin, liver, intestines, and oocytes were dissected into Trizol (Thermo Fisher Scientific, Waltham, USA).
To isolate alkaloids, 0.3 mL of 100% EtOH was added to 1mL of organic layer from the Trizol RNA extraction, inverted 10 times, and stored at room temperature for 2–3 minutes to precipitate genomic DNA, which was pelleted by centrifugation at 2000g for 5 minutes at 4°C. Then, 300 μL of supernatant was transferred to a new microfuge tube. Proteins were precipitated by adding 900 μL of acetone, mixing by inversion for 10–15 seconds, incubating at room temperature for 10 min, and centrifuging at max speed for 10 min at 4°C. Then, 1 mL of the supernatant containing alkaloids was moved into a glass vial and stored at -20°C until dried down completely under a gentle nitrogen gas flow.
Samples were resuspended in 200 μl of methanol:chloroform 1:1 and 1 μM Nicotine-d3 (used as an internal standard). A 10-point standard curve was prepared in the same solution with DHQ and PTX 251D. A QE+ mass spectrometer coupled to an Ultimate3000 LC (ThermoFisher) was used for analysis. […] The gradient was 0% B for 1 min, then increased to 100% B in 14 min, followed by 5 min at 100% B and 3.5 min at 0% B. Data were quantified using accurate mass, using the standard curve for DHQ and PTX 251D for absolute quantification. aPTX 267A was identified by accurate mass and MS/MS fragmentation similarity to PTX.
R version 3.6.3 was used for all statistical analyses, and all plotting and statistics code is provided in a S1 File. There were instances in the LC-MS/MS data where the molecules of interest (DHQ, PTX 251D, or aPTX 267A) were not detected, and these were converted to zeros prior to statistical analyses and visualization. […] PTX 251D and DHQ were analyzed separately. The abundance of aPTX 267A was approximated using the area-under-the-curve divided by the internal nicotine standard, and as there is no standard for aPTX 267A, exact pmol values could not be calculated. […]

As for `CCCCC(C)C=C1CN2CCCC2C(C)(O)C1` (stereo not drawn) [PTX 251D, pumiliotoxin (PTX 251D)], in the data set on mice, the toxic effects result is “pain, hyperactivity, convulsions and death”. Besides, in data set [1], the “effect on voltage-gated sodium and potassium channels” value is given as “inhibits both types of channels”. In addition, in data set [2], the “PTX 251D abundance by tissue and treatment” value was “highest levels in the liver and skin”.
